{"source": "paper PMC8290497", "about": "“Taxifolin, an Inhibitor of Sortase A, Interferes With the Adhesion of Methicillin-Resistant Staphylococcal aureus” (Frontiers in Microbiology, 2021)", "key": {"S. aureus SrtA": {"target": "T1, S. aureus SrtA (Staphylococcus aureus, UniProt Q2FV99)", "T1 construct": "6xHis; made in house; host or cells: E. coli BL21 (DE3), plasmid pET28a-SrtA", "T1 sequence (Q2FV99 whole entry)": "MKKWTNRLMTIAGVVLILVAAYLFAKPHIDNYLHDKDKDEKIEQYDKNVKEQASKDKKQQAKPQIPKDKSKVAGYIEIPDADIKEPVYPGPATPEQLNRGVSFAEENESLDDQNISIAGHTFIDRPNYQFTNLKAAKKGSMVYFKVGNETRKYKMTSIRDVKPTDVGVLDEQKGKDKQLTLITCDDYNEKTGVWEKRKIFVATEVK", "experiment": "FRET assay of SrtA transpeptidation (cleavage of Abz-LPATG-Dap(Dnp)-NH2)", "type": "biochemical", "experimental": "Fluorescence resonant energy transfer (FRET) was used to determine the effect of Tax on SrtA, as described previously ([Kruger et al., 2002]). Briefly, 4 μM purified recombinant SrtA was combined with various concentrations of Tax then added to assay buffer consisting of 50 mM Tris-HCl, 5 mM CaCl2, 150 mM NaCl, at pH 7.5, to a final volume of 200 μL. Following incubation of the mixture at 37°C for 1 h, substrate peptide was added to a final concentration of 10 μM and incubated for an additional 30 min. Fluorescence intensity was measured at excitation and emission wavelengths of 309 and 420 nm, respectively.\nTo identify novel inhibitors of SrtA, an in-house library containing 420 natural compounds was screened, using a FRET assay. […] To further clarify the interacting way of SrtA and Tax, recombinant SrtA was reacted with Tax at a concentration of 10-fold IC50. A total of 85.80 ± 0.67% of SrtA activity was subsequently recovered, compared with the control group (DMSO) (Figure 1C).\nFIGURE 1 Inhibition of SrtA transpeptidation. (A) Chemical structure of Tax. […] Each reaction condition was assayed in triplicate from which the IC50 was determined. (C) Recombinant SrtA was treated with 10 × IC50 of Tax and then diluted, after which transpeptidation activity was measured using a FRET assay. […]"}, "S. aureus USA300 [1]": {"test_system": "S. aureus USA300", "experiment": "Broth microdilution susceptibility assay (MIC)", "type": "cell-based", "conditions": "Staphylococcus aureus, S. aureus USA 300", "experimental": "(§1) A broth microdilution assay was performed to determine the minimum inhibitory concentration (MIC) of Tax for S. aureus USA300, as described elsewhere ([Sader et al., 2013]; [Delgado-Valverde et al., 2017]). A growth curve was further evaluated by adding various concentrations of Tax (0–200 μM) to a bacterial culture, then incubating until an OD600 of 0.3 had been reached. S. aureus USA300 and ΔsrtA were used as controls. The OD600 value was recorded for each sample at 1 h intervals for a total of 24 h. The growth rate between S. aureus treated with Tax and S. aureus USA300 was also calculated at each time point."}, "S. aureus USA300 [2]": {"test_system": "S. aureus USA300", "experiment": "Growth curve and growth rate", "type": "cell-based, Staphylococcus aureus", "experimental": "as §1\n(§2) FIGURE 2 Growth curve and cytotoxicity. (A) Growth curves of S. aureus USA300 and the ΔsrtA group with different concentrations of Tax. (B) Growth rate of S. aureus USA300 and S. aureus treated with Tax (25 μM). (C) Percent cell viability of HEK293 (purple) and HepG2 (blue) cells were measured using a CCK-8 assay after incubation with Tax for 24 h."}, "HepG2 cells": {"test_system": "HepG2 cells", "experiment": "CCK-8 cytotoxicity assay, HepG2", "type": "cell-based", "experimental": "Cytotoxicity was determined using a cell counting kit-8 assay (CCK-8, US EVERBRIGHT, Suzhou, China), as described previously ([Xiao et al., 2018]). HEK293 or HepG2 cells were seeded in 96-well plates (Corning, United States) at a density of 5 × 10^4 cells/well, then incubated at 37°C in an atmosphere containing 5% CO2 for 24 h. The culture medium was then exchanged with fresh medium containing different concentrations of Tax (0–200 μM) or vehicle and incubated for an additional 24 h. CCK-8 solution (10 μL) was carefully added then incubated for 4 h in an incubator at 37°C. The OD value at 450 nm was measured to calculate cell viability.\nas §2"}, "[3]": {"test_system": "adhesion of S. aureus USA300 to fibrinogen", "experiment": "Fibrinogen binding assay (crystal violet)", "type": "cell-based", "conditions": "Staphylococcus aureus, USA300, read-out: inhibition rate of adhesion of bacteria to fibrinogen"}, "[4]": {"test_system": "S. aureus biofilm formation", "experiment": "Biofilm formation assay (crystal violet)", "type": "cell-based, Staphylococcus aureus", "conditions": "coculture with 200 μM Tax, 24 h", "experimental": "Bacterial cultures grown overnight were diluted 1:100 in BHI medium supplemented with 3% NaCl and 0.5% glucose. A 200 μL aliquot of each diluted culture was added to separate wells of a 96-well plate, to which different concentrations of Tax (25–200 μM) had been added, then incubated at 37°C for 24 h. Subsequently, the culture medium was replaced with crystal violet to stain the biofilm for 15 min. The wells were then washed thoroughly with sterile deionized PBS three times. The crystal violet stain in each well was decolorized with 200 μL absolute ethanol and then the OD595 value was recorded using a microplate reader.\n(§3) FIGURE 3 Effect of SrtA inhibitor on virulence-related phenotypes in S. aureus Newman strain. (A) Impact of Tax on the ability of S. aureus to adhere to fibrinogen. (B) Biofilm formation of S. aureus in the presence of different concentrations of Tax. (C) Mature biofilms of S. aureus in the presence of different concentrations of Tax. The ΔsrtA group represented the positive control. (D) Tax affects internalization of S. aureus into A549 cells. […] The number of viable S. aureus in the cells was quantified by serial dilution on TSA agar plates. […] Error bars represent means ± SD of three replicates. *P < 0.05, **P < 0.01, ***P < 0.001 calculated with a two-tailed Student’s t-test."}, "[5]": {"test_system": "internalization of S. aureus into A549 cells", "experiment": "Invasion assay of S. aureus into A549 cells", "type": "cell-based, Staphylococcus aureus", "conditions": "200 μM Tax; P < 0.001", "experimental": "A549 human lung carcinoma cells were seeded at a density of 2.5 × 10^5 per well in 24-well plates and placed in an incubator at 37°C in an atmosphere containing 5% CO2 for 20 h. Cultures of S. aureus were mixed with different concentrations of Tax then cultured at 37°C until an OD600 of 1.0 was achieved. The A549 cells were resuspended in medium and aliquots of bacterial suspension were added to each well to a total concentration of 2 × 10^7°CFU/mL. After incubation for 2 h, the invasion assay was terminated by incubation with 300 μg/mL gentamicin for 30 min. The cells were then lysed after washing and coated on a BHI agar plate. After incubation at 37°C for 12 h, the number of CFUs were counted manually.\nas §3"}, "BALB/c mice": {"test_system": "BALB/c mice", "conditions": "mouse, in vivo, ip, 200 mg/kg", "quoted_text": "An injection of PBS represented the control group. Symptoms of poisoning or abnormal behavior were monitored, and survival of the mice in each group was recorded after 72 h."}}, "data": [{"smiles": "O=C1c2c(O)cc(O)cc2OC(c2ccc(O)c(O)c2)C1O", "note": "(stereo not shown) [Tax, taxifolin]", "values": [{"measurement": "IC50", "setting": "S. aureus SrtA", "value": "24.5 ± 0.42", "unit": "µM"}, {"measurement": "MIC", "setting": "S. aureus USA300 [1]", "value": 512, "unit": "µg/mL"}, {"measurement": "toxicity toward S. aureus", "setting": "S. aureus USA300 [2]; 200 μM", "value": "did not display toxicity"}, {"measurement": "effect on the growth of S. aureus", "setting": "S. aureus USA300 [2]; at a concentration of IC50 (25 μM), P > 0.05", "value": "no significant effect"}, {"measurement": "toxicity toward mammalian cells (HepG2)", "setting": "HepG2 cells; 200 μM", "value": "did not display toxicity"}, {"measurement": "cytotoxicity toward HepG2 cells", "setting": "HepG2 cells; at 24.53 ± 0.42 μM, 24 h", "value": "no significant cytotoxicity"}, {"measurement": "inhibition at 200 µM", "setting": "[3]", "value": "35.1 ± 0.49", "unit": "%"}, {"measurement": "biofilm biomass, % of the mass of the untreated control", "setting": "[4]", "value": "29.91 ± 0.51", "unit": "%"}, {"measurement": "number of bacteria entering A549 cells", "setting": "[5]", "value": "reduced significantly"}, {"measurement": "acute toxicity, signs observed", "setting": "BALB/c mice", "value": "no signs of malaise, or tardy or inanimate behavior"}]}]}
